Columns and labels:
Experiment in all cases: Test G pre/postemergence
Type in all cases: in vivo
[1] = tested on: common purslane (Portulaca oleracea)
Method in brief: (§1)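 Visual scores from 0 (no effect) to 100 (complete control) were assigned relative to untreated controls 12 to 21 days after treatment. Compounds, formulated in a non-phytotoxic solvent mixture with surfactant, were applied preemergence to planted seed or postemergence to plants at the 1- to 4-leaf stage (2 to 18 cm).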

[2] = tested on: purple nutsedge (Cyperus rotundus)
Method in brief: as §1

[3] = tested on: spanishneedles (Bidens bipinnata)
Method in brief: as §1

[4] = tested on: kochia (Kochia scoparia)
Method in brief: as §1

[5] = tested on: common sowthistle (Sonchus oleraceous)
Method in brief: as §1

[6] = tested on: Canada horseweed (Conyza canadensis)
Method in brief: as §1

[7] = tested on: Russian thistle (Salsola kali)
Method in brief: as §1

[8] = Postemergence, 8 g ai/ha, scale 0 to 100
[9] = Postemergence, 16 g ai/ha, scale 0 to 100
[10] = Postemergence, 31 g ai/ha, scale 0 to 100
[11] = Postemergence, 62 g ai/ha, scale 0 to 100
[12] = Preemergence, 8 g ai/ha, scale 0-100
[13] = Preemergence, 16 g ai/ha, scale 0-100
[14] = Preemergence, 31 g ai/ha, scale 0-100
[15] = Preemergence, 62 g ai/ha, scale 0-100
[16] = Postemergence, 250 g ai/ha, scale 0 to 100
[17] = Postemergence, 125 g ai/ha, scale 0 to 100
[18] = Preemergence, 125 g ai/ha, scale 0-100
[19] = Preemergence, 250 g ai/ha, scale 0-100
[20] = Preemergence, 500 g ai/ha, scale 0 to 100

CCOC(=O)c1nc(-c2ccc(Cl)cc2)nc(N)c1Cl [Compound 64, ethyl 6-amino-5-chloro-2-(4-chlorophenyl)-4-pyrimidinecarboxylate]
Plant response rating, Purslane [1, 8]: 0
Plant response rating, Purslane [1, 9]: 0
Plant response rating, Purslane [1, 10]: 0
Plant response rating, Purslane [1, 11]: 60
Plant response rating, Purslane [1, 12]: 0
Plant response rating, Purslane [1, 13]: 0
Plant response rating, Purslane [1, 14]: 0
Plant response rating, Purslane [1, 15]: 35
Plant response rating, Nutsedge, Purple [2, 8]: 0
Plant response rating, Nutsedge, Purple [2, 9]: 35
Plant response rating, Nutsedge, Purple [2, 10]: 35
Plant response rating, Nutsedge, Purple [2, 11]: 35
Plant response rating, Nutsedge, Purple [2, 12]: 0
Plant response rating, Nutsedge, Purple [2, 13]: 0
Plant response rating, Nutsedge, Purple [2, 14]: 0
Plant response rating, Nutsedge, Purple [2, 15]: 0
Plant response rating, Spanishneedles [3, 8]: 65
Plant response rating, Spanishneedles [3, 9]: 75
Plant response rating, Spanishneedles [3, 10]: 90
Plant response rating, Spanishneedles [3, 11]: 90
Plant response rating, Spanishneedles [3, 12]: 0
Plant response rating, Spanishneedles [3, 13]: 0
Plant response rating, Spanishneedles [3, 14]: 0
Plant response rating, Spanishneedles [3, 15]: 35
Plant response rating, Kochia [4, 8]: 65
Plant response rating, Kochia [4, 9]: 75
Plant response rating, Kochia [4, 10]: 85
Plant response rating, Kochia [4, 11]: 90
Plant response rating, Kochia [4, 12]: 0
Plant response rating, Kochia [4, 13]: 0
Plant response rating, Kochia [4, 14]: 10
Plant response rating, Kochia [4, 15]: 15
Plant response rating, Sowthistle [5, 8]: 65
Plant response rating, Sowthistle [5, 9]: 80
Plant response rating, Sowthistle [5, 10]: 80
Plant response rating, Sowthistle [5, 11]: 80
Plant response rating, Sowthistle [5, 12]: 0
Plant response rating, Sowthistle [5, 13]: 0
Plant response rating, Sowthistle [5, 14]: 35
Plant response rating, Sowthistle [5, 15]: 90
Plant response rating, Horseweed [6, 8]: 60
Plant response rating, Horseweed [6, 9]: 60
Plant response rating, Horseweed [6, 10]: 60
Plant response rating, Horseweed [6, 11]: 60
Plant response rating, Horseweed [6, 12]: 0
Plant response rating, Horseweed [6, 13]: 75
Plant response rating, Horseweed [6, 14]: 95
Plant response rating, Horseweed [6, 15]: 95
Plant response rating, Russian Thistle [7, 12]: 0
Plant response rating, Russian Thistle [7, 14]: 0
Plant response rating, Russian Thistle [7, 15]: 0

Nc1nc(C2CC2)nc(C(=O)[O-])c1Cl.[Na+] [Compound 77, 6-amino-5-chloro-2-cyclopropyl-4-pyrimidinecarboxylic acid monosodium salt]
Plant response rating, Purslane [1, 16]: 85
Plant response rating, Purslane [1, 9]: 20
Plant response rating, Purslane [1, 10]: 20
Plant response rating, Purslane [1, 11]: 60
Plant response rating, Purslane [1, 17]: 70
Plant response rating, Purslane [1, 13]: 45
Plant response rating, Purslane [1, 14]: 60
Plant response rating, Purslane [1, 15]: 75
Plant response rating, Purslane [1, 18]: 100
Plant response rating, Purslane [1, 19]: 100
Plant response rating, Nutsedge, Purple [2, 16]: 40
Plant response rating, Nutsedge, Purple [2, 9]: 0
Plant response rating, Nutsedge, Purple [2, 10]: 0
Plant response rating, Nutsedge, Purple [2, 11]: 0
Plant response rating, Nutsedge, Purple [2, 17]: 0
Plant response rating, Nutsedge, Purple [2, 13]: 100
Plant response rating, Nutsedge, Purple [2, 14]: 100
Plant response rating, Nutsedge, Purple [2, 15]: 100
Plant response rating, Nutsedge, Purple [2, 18]: 100
Plant response rating, Nutsedge, Purple [2, 19]: 100
Plant response rating, Spanishneedles [3, 16]: 98
Plant response rating, Spanishneedles [3, 9]: 75
Plant response rating, Spanishneedles [3, 10]: 95
Plant response rating, Spanishneedles [3, 11]: 98
Plant response rating, Spanishneedles [3, 17]: 98
Plant response rating, Kochia [4, 16]: 98
Plant response rating, Kochia [4, 9]: 90
Plant response rating, Kochia [4, 10]: 95
Plant response rating, Kochia [4, 11]: 98
Plant response rating, Kochia [4, 17]: 98
Plant response rating, Kochia [4, 13]: 85
Plant response rating, Kochia [4, 14]: 95
Plant response rating, Kochia [4, 15]: 95
Plant response rating, Kochia [4, 18]: 100
Plant response rating, Kochia [4, 19]: 100
Plant response rating, Sowthistle [5, 16]: 95
Plant response rating, Sowthistle [5, 9]: 75
Plant response rating, Sowthistle [5, 10]: 90
Plant response rating, Sowthistle [5, 11]: 90
Plant response rating, Sowthistle [5, 17]: 95
Plant response rating, Sowthistle [5, 13]: 80
Plant response rating, Sowthistle [5, 14]: 100
Plant response rating, Sowthistle [5, 15]: 100
Plant response rating, Sowthistle [5, 18]: 100
Plant response rating, Sowthistle [5, 19]: 100
Plant response rating, Horseweed [6, 16]: 80
Plant response rating, Horseweed [6, 9]: 40
Plant response rating, Horseweed [6, 10]: 50
Plant response rating, Horseweed [6, 11]: 75
Plant response rating, Horseweed [6, 17]: 80
Plant response rating, Horseweed [6, 13]: 70
Plant response rating, Horseweed [6, 14]: 90
Plant response rating, Horseweed [6, 15]: 100
Plant response rating, Horseweed [6, 18]: 100
Plant response rating, Horseweed [6, 19]: 100
Plant response rating, Russian Thistle [7, 13]: 85
Plant response rating, Russian Thistle [7, 15]: 100
Plant response rating, Russian Thistle [7, 19]: 100

Nc1nc(C2CC2)nc(C(=O)OCc2ccccc2)c1Br [Compound 22, phenylmethyl 6-amino-5-bromo-2-cyclopropyl-4-pyrimidinecarboxylate]
Plant response rating, Purslane [1, 16]: 98
Plant response rating, Purslane [1, 9]: 50
Plant response rating, Purslane [1, 10]: 55
Plant response rating, Purslane [1, 11]: 85
Plant response rating, Purslane [1, 17]: 95
Plant response rating, Purslane [1, 13]: 0
Plant response rating, Purslane [1, 14]: 0
Plant response rating, Purslane [1, 15]: 50
Plant response rating, Purslane [1, 18]: 70
Plant response rating, Purslane [1, 19]: 75
Plant response rating, Nutsedge, Purple [2, 16]: 15
Plant response rating, Nutsedge, Purple [2, 9]: 0
Plant response rating, Nutsedge, Purple [2, 10]: 0
Plant response rating, Nutsedge, Purple [2, 11]: 0
Plant response rating, Nutsedge, Purple [2, 17]: 0
Plant response rating, Nutsedge, Purple [2, 13]: 0
Plant response rating, Nutsedge, Purple [2, 14]: 0
Plant response rating, Nutsedge, Purple [2, 15]: 30
Plant response rating, Nutsedge, Purple [2, 18]: 40
Plant response rating, Nutsedge, Purple [2, 19]: 50
Plant response rating, Kochia [4, 16]: 100
Plant response rating, Kochia [4, 9]: 98
Plant response rating, Kochia [4, 10]: 98
Plant response rating, Kochia [4, 11]: 98
Plant response rating, Kochia [4, 17]: 100
Plant response rating, Kochia [4, 13]: 35
Plant response rating, Kochia [4, 14]: 70
Plant response rating, Kochia [4, 15]: 98
Plant response rating, Kochia [4, 18]: 100
Plant response rating, Kochia [4, 19]: 100
Plant response rating, Sowthistle [5, 16]: 100
Plant response rating, Sowthistle [5, 9]: 75
Plant response rating, Sowthistle [5, 10]: 85
Plant response rating, Sowthistle [5, 11]: 95
Plant response rating, Sowthistle [5, 17]: 100
Plant response rating, Sowthistle [5, 13]: 35
Plant response rating, Sowthistle [5, 14]: 75
Plant response rating, Sowthistle [5, 15]: 90
Plant response rating, Sowthistle [5, 18]: 100
Plant response rating, Sowthistle [5, 19]: 100
Plant response rating, Russian Thistle [7, 16]: 100
Plant response rating, Russian Thistle [7, 9]: 95
Plant response rating, Russian Thistle [7, 10]: 100
Plant response rating, Russian Thistle [7, 11]: 100
Plant response rating, Russian Thistle [7, 17]: 100
Plant response rating, Russian Thistle [7, 13]: 65
Plant response rating, Russian Thistle [7, 14]: 75
Plant response rating, Russian Thistle [7, 15]: 95
Plant response rating, Russian Thistle [7, 18]: 100
Plant response rating, Russian Thistle [7, 19]: 100

CCOC(=O)c1nc(C2CC2)nc(N)c1Cl [Compound 4, ethyl 6-amino-5-chloro-2-cyclopropyl-4-pyrimidinecarboxylate]
Plant response rating, Purslane [1, 15]: 60
Plant response rating, Purslane [1, 18]: 100
Plant response rating, Purslane [1, 19]: 100
Plant response rating, Purslane [1, 20]: 100
Plant response rating, Nutsedge, Purple [2, 15]: 40
Plant response rating, Nutsedge, Purple [2, 18]: 100
Plant response rating, Nutsedge, Purple [2, 19]: 100
Plant response rating, Nutsedge, Purple [2, 20]: 100
Plant response rating, Spanishneedles [3, 15]: 100
Plant response rating, Spanishneedles [3, 18]: 100
Plant response rating, Spanishneedles [3, 19]: 100
Plant response rating, Spanishneedles [3, 20]: 100
Plant response rating, Sowthistle [5, 15]: 100
Plant response rating, Sowthistle [5, 18]: 100
Plant response rating, Sowthistle [5, 19]: 100
Plant response rating, Sowthistle [5, 20]: 100
Plant response rating, Horseweed [6, 15]: 100
Plant response rating, Horseweed [6, 18]: 100
Plant response rating, Horseweed [6, 19]: 100
Plant response rating, Horseweed [6, 20]: 100
Plant response rating, Russian Thistle [7, 18]: 100
Plant response rating, Russian Thistle [7, 19]: 100
Plant response rating, Russian Thistle [7, 20]: 100
